What all share (experiment): microbe, parasite or virus in culture
Common to all, as to type: cell-based

Test [1] concerns Candida albicans KCTC 7270. The settings on record: WST colorimetric, YMB. How it is done: (§1) The antifungal activities of the peptides were evaluated against two yeast fungi, C. albicans KCTC 7270 and C. cuniculi KCTC 17232, and a mold fungus, M. hiemalis KCTC 26779. C. albicans and C. cuniculi were cultured in yeast mold broth (YMB; BD Science) agar at 35 °C and 25 °C, respectively. Cells were prepared in YMB for C. albicans and RPMI 1640 medium (with l-glutamine, without phenol red and sodium bicarbonate, Sigma Aldrich, Saint Louis, MO, USA) and adjusted to pH 7.0 with 0.165 M 3-(N-morpholino) propanesulfonic acid (MOPS) (iNtRON Biotechnology, Seoul, Korea), as previously described for C. cuniculi. According to the 0.5 McFarland standard, cells at 1.5 × 10^5 CFU/well were seeded into a 96-well plate containing 180 µL of fresh medium. Subsequently, peptides at final concentrations of 5–45 ug/mL (1.2–19.3 μM) peptides were added to each well. Ciclopirox (≥98% (HPLC), Sigma Aldrich) was used as a reference for the antifungal activity. The antifungal assay was conducted in the same manner as the antibacterial assay described above, according to the manufacturer’s protocol. Briefly, C. albicans and C. cuniculi were incubated at 35 °C for 6 h and 25 °C for 47 h, respectively, and 10 µL of the coloring reagent was added and further incubated for 18 h and 25 h. The MIC values were determined in the same way as for the antibacterial assay.

For test [2], the system named is Cryptococcus cuniculi KCTC 17232. To be noted: WST colorimetric. How it is done:
as §1

In test [3] the test system is Mucor hiemalis KCTC 26779. The settings on record: KCTC26779, concentration not given, peptides tested at 20, 40, and 80 µg/mL, fluvastatin sodium 70 µM, read-out: rate of metabolic inhibition. The method, then: To evaluate the antifungal activity of peptides against M. hiemalis, the metabolic activity of hyphae was measured using the same colorimetric assay as described above, with slight modifications to a previous study. Briefly, M. hiemalis was streaked onto malt extract broth (BD Biosciences) agar in a Petri dish and cultured at 25 °C for seven days. Then, conidia were collected from the dish by adding phosphate buffered saline (PBS) containing 0.05% Tween-80 (Sigma Aldrich) and filtered through sterilized 40 um cell strainer (SPL Life Science, Pocheon, Korea) to remove hyphae. After washing twice with PBS and centrifugation, 5 × 10^4 conidia were counted using a hemocytometer, suspended in 50 µL of RPMI 1640 as described above, and seeded in wells of a 96-well plate. After 16 h of incubation at 25 °C for hyphae formation, the plate was centrifuged at 3000× g and the media were changed. The peptides were then added at final concentrations of 20, 40, and 80 µg/mL. Fluvastatin sodium (70 µM; Sigma-Aldrich) was used as a reference for antifungal activity. […] The absorbance at 450 nm (for the treated group and control) and 650 nm (for the background) was measured for each well using a microplate reader (xMarkTM spectrophotometer; Bio-Rad). The metabolic activity of the fungal cells was calculated using the following equation. […]

Structures are written as SMILES. Read-outs that look alike come from different tables or passages of the source.

`Cc1cc(C2CCCCC2)n(O)c(=O)c1` [Ciclopirox]: the MIC is 16.9 µM in test [1] (Candida albicans, KCTC7270, value in brackets, 35 °C 6 h + 18 h, read-out: MIC (converted)); 3.5 µg/mL in test [1] (1.5 × 10^5 CFU/well, 35 °C 6 h + 18 h coloring reagent); 2.4 µM in test [2] (Cryptococcus, KCTC17232, value in brackets, RPMI 1640 with MOPS pH 7.0, 25 °C 47 h + 25 h, read-out: MIC); 0.5 µg/mL in test [2] (RPMI 1640 with MOPS pH 7.0, 1.5 × 10^5 CFU/well, 25 °C 47 h + 25 h coloring reagent).

Turning to `CC(C)n1c(/C=C/C(O)CC(O)CC(=O)O)c(-c2ccc(F)cc2)c2ccccc21` (centres unmarked) [fluvastatin sodium, Fluvastatin sodium], the inhibition at 70 µM in test [3] is roughly 80%.

What is called inhibition is how much of the control response was suppressed.

These data come from publication PMC9330922, “Genomewide Analysis and Biological Characterization of Cathelicidins with Potent Antimicrobial Activity and Low Cytotoxicity from Three Bat Species” (Antibiotics, 2022).
